The source of these data is US20050074867A1, “Preservation of competent cells at ambient temperatures” (priority 2001, published 2005).

Experiment [1] relates to Escherichia coli ATCC strain MM294 cells. As to the kind of experiment: Preservation survival of electrocompetent E. coli MM294 cells dried by foam formation (plate count). The experiment is classed as cell-based. The settings on record: cells loaded with 10% MAG, preserved (dried) by foam formation; average of three independent experiments. The procedure:
(1) Preparation of fresh electrocompetent cells: Escherichia coli ATCC strain MM294 cells were grown under standard conditions in L-broth (growth medium for E. coli), at 37° C., with moderate aeration (shaking at 250 rpm). An isolated colony from a fresh streak was inoculated into 5 ml of L-broth and incubated overnight (preculture). The following morning, the preculture was subcultured (1% inoculum) in 100 ml of L-broth+glucose (0.05%-0.5%). The cells were incubated until OD550=0.5 (subculture). At this point, the cells were transferred into 250 ml of L-broth+glucose (0.05%-0.5%) and incubation continued until OD550=0.8. Two flasks with 250 ml of cells were prepared.
When the culture OD550 reached 0.8 (cell density approx. 5×10^8 cfu/ml), the cells were harvested by centrifugation at 2,500 rpm (at room temperature) for 10 minutes. […] Bacterial counts were determined by diluting cells in PBS buffer and spread plating appropriate dilutions in duplicate on L-agar. The plates were incubated at 37° C. overnight and colonies were counted the following day. […]
(5) Assaying the preserved E. coli cells: Dried samples were rehydrated at room temperature. […] Plates were incubated at 37° C. overnight and colonies were counted the following day. […]

Experiment [2] deals with commercial electrocompetent E. coli cells. As to the kind of experiment: Electroporation of preserved commercial electrocompetent E. coli cells. The settings on record: loaded with 10% MAG, transformed immediately after drying. The experiment is classed as cell-based. The protocol: (2) Electroporation of fresh E. coli electrocompetent cells: Two aliquots of the concentrated cells (50 μl each) were transferred into pre-chilled Eppendorf tubes (1.5 ml) and 2 μl of pUC18 plasmid DNA (approx. 300 ng/μl) were added to the tubes. The [cells+DNA] mixtures were incubated on ice for 5 minutes and transferred into pre-chilled cuvettes for electroporation. The cells were electroporated by using a BTX T-100 electroporator, at 625 or at 800 volts (V) in BTX cuvettes (0.1 cm gap, P/N 610 Disposable Cuvettes) with a time constant “r” equal 5 msec. Under the pulse conditions described above, the cells were subjected to an electrical field “E” equal to 6.25 kV/cm or 8.0 kV/cm.
Immediately after the pulse, the cells were transferred into small glass tubes (10×100 mm) with 0.5 ml of “outgrowth medium” (L-broth+20% sucrose+10 mM CaCl2). The electroporated bacteria were incubated at 37° C. with moderate shaking (150 rpm) for 60 minutes. When the 60 minutes period elapsed, the cells were diluted in “outgrowth medium” and duplicate samples were spread plated on L-agar plates with no antibiotic (to determine electroporation survival) and on L-agar plates with 50 μg/ml or 100 μg/ml of ampicillin (selective marker on pUC18 plasmid; to determine electroporation efficiency). The plates were incubated overnight at 37° C. and the colonies were counted the next day.
(6) Electroporation of dried (preserved) E. coli cells: One or two 50 μl aliquots were removed from each rehydrated vial and transferred to pre-chilled Eppendorf tubes. The cells were mixed with pUC18 plasmid DNA (300 ng/μl) and electroporated using the conditions described previously for the electroporation of fresh electrocompetent cells.
Electroporation survival was calculated as the number of viable cells recovered after electrical pulse per total number of electroportated cells. Electroporation efficiency was calculated as the number of transformants (cells which received pUC18 plasmid DNA) per number of cells recovered after electroporation (electroporation survival). When applicable, the electroporation efficiency was also expressed as number of transformants per 1 μg of pUC18 DNA (Cfu/μg).
Preserved commercial cells (vitrified and frozen) were electroporated as described previously. Electroporation survival and electroporation efficiency in the preserved cells were determined and compared to the same parameters in the fresh cells (Table 5).

On to `COC1OC(CO)C(O)C(O)C1O` (stereo not shown) [MAG, a-methyl-glucoside], for which, in experiment [1], the “Preservation Yield Cfu/ml” value is reported as 1.1 × 10^10 Cfu/ml and the “Preservation yield %” value worked out at 53.5%. Besides, in experiment [2], the “Electroporation Efficiency 10^−3%” value is given as 6.1 +/− 5.5 10^−3%, the “Electroporation Efficiency (Cfu/µg DNA)” value is 1.6 × 10^4 +/− 1.8 × 10^2 Cfu/µg DNA, the “Electroporation Efficiency Cfu/ml” value is 1.9 × 10^5 +/− 1.7 × 10^5 Cfu/ml and the “Electroporation Survival (%)” value is listed as 35.7 +/− 4.7%. Also, the “Electroporation Survival Cfu/ml” value in experiment [2] (cell density 1/10 of fresh concentrates) is 3.2 × 10^9 +/− 4.2 × 10^8 Cfu/ml.
